Results taken from PMC11490872, “Drug-resistant menin variants retain high binding affinity and interactions with MLL1” (The Journal of Biological Chemistry, 2024).
Read-outs that look alike come from different tables or passages of the source.

T1: menin^G331D (Homo sapiens, UniProt O00255, G326D)
T1 construct: The gene encoding full-length human menin was cloned into a pET32a expression vector; thioredoxin-His6 (cleaved yes); made in house; host or cells: E. coli BL21(DE3)
T1 sequence (O00255 1-610 G326D): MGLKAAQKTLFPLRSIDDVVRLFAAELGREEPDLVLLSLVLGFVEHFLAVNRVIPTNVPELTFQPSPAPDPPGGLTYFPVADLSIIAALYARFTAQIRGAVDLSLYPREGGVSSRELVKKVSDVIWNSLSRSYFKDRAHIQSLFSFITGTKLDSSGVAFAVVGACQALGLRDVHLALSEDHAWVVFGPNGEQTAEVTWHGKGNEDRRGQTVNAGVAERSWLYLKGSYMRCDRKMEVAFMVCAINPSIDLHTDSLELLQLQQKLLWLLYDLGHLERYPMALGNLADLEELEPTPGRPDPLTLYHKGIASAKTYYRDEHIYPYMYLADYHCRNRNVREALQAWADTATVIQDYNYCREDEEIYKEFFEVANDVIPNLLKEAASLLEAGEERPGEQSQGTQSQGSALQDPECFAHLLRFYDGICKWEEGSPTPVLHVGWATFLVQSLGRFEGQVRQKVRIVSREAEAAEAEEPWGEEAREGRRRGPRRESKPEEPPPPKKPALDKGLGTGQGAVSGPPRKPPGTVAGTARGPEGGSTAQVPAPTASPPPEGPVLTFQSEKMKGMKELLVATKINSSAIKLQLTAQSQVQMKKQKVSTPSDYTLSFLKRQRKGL

B1: MLL1^160: N-terminal 160 amino acids of human MLL1, Cys2 mutated to alanine, recombinant (protein)
chain: MAHSARWRFPARPGTTGGGGGGGRRGLGGAPRQRVPALLLPPGPPVGGGGPGAPPSPPAVAAAAAAAGSSGAGVPGGAAAASAASSSSASSSSSSSSSASSGPALLRVGPGFDAALQVSAAIGTNLRRFRAVFGESGGGGGSGEDEQFLGFGSDEEVRVR
modifications: The printed 'Cys2' is the single N-terminal cysteine, Cys5 in the entry (peptide S4-A5-R6); Trx-His6 tag cleaved

Experiments:
[1] = tested on: patients with MLL1-r and NPM1-mut acute leukemias; settings: cited from earlier work
menin T349M = tested on: menin T349M; design: method as in PMID 36922589; settings: versus wild-type menin; cited from earlier work
menin M327I = tested on: menin M327I; design: method as in PMID 36922589; settings: versus wild-type menin; cited from earlier work
menin^G331D = biological target: T1, menin^G331D; assay: ITC binding of MLL1 fragments to menin^G331D
Protocol: Menin and MLL1 fragments were dialyzed at 4 °C against a 50 mM sodium phosphate pH 7.5, 50 mM NaCl, 1 mM TCEP buffer, and degassed prior to measurement. The titrations were performed using the VP-ITC system (MicroCal) at 25 °C. The calorimetric cell, which contained menin (concentrations in the 5–10 μM range), was titrated with the MLL1^160 and MLL1^4-15 derived peptides (concentration range 40–100 μM) injected in 10-μL aliquots. Data was analyzed using Origin 7.0 (OriginLab) to obtain Kd, stoichiometry, entropy, and enthalpy ([2]). Experiments with WT, M327I, T349M, and G331R menin and MLL1^160 or MLL1^4-15 were run in duplicate. Experiments with G331D menin and MLL1^160 were run in duplicate while experiments with G331D and MLL1^4-15 were run in quadruplicate.

[2] = Phase 1/2, AML patients with KMT2A (MLL1) rearrangements and NPM1 mutations

Row | Molecule | complete remission [1, 2] [%] | overall response rate [1, 2] [%] | rate of complete remission ([1]; phase 1/2 first-in-human trials, MLL1-r and NPM1-mut acute leukemias) | reduction of binding by T349M mutation (menin T349M) [fold] | reduction of binding by M327I mutation (menin M327I) [fold] | Kd (menin^G331D; ITC summary Fig. 1B, * n = 2, ^ n = 4, read-out: G331D Kd (nM), ITC) [nM] | Kd (menin^G331D; ITC, representative binding isotherm Fig. 1A, 25 °C, read-out: Kd) [nM]
1 | CCN(C(=O)c1cc(F)ccc1Oc1cncnc1N1CC2(CCN(C[C@H]3CC[C@H](NS(=O)(=O)CC)CC3)CC2)C1)C(C)C [Revumenib, reference compound] | ~35 | ~45 | over 30% | 111 | 51 |  | 
2 | B1 |  |  |  |  |  | 1.4 ± 0.7 | 1.4 ± 0.7
